Experimental data as given in US9433607B2, “Composition for prevention or treatment of cancer comprising N-methylenenaphtho[2,1-b]furan-2-carbohydrazide derivatives as an active ingredient” (KOREA RESEARCH INSTITUTE OF BIOSCIENCE AND BIOTECHNOLOGY, priority 2012, dated 2016).

Tests used:
Type in all cases: cell-based
[1] = test system: HeLa cells; experiment: Immunofluorescence of intracellular microtubules and chromosomes
Method: To investigate the effect of ethyl(2-methyl-3{(E)-[(naphtho[2,1-b]furan-2-ylcarbonyl)hydrazono]methyl}-1H-indole-1-yl)acetate on intracellular microtubules, HeLa cells were treated with DMSO, Taxol (100 μM), nocodazole (200 ng/ml), or ethyl(2-methyl-3{(E)-[(naphtho[2,1-b]furan-2-ylcarbonyl)hydrazono]methyl}-1H-indole-1-yl)acetate (5 μM) for 17 hours. After fixing the cells, the cells were immuno-stained with Alexa Fluor 488-conjugated anti-tubulin antibody and Hoechst 33342 to confirm α-tubulin and chromosomes.

[2] = test system: HeLa cell line; experiment: Anti-proliferative activity in HeLa cells (MTT assay); conditions: Homo sapiens
Method: Particularly, HeLa cell line (ATCC, USA) was treated with the compounds of Table 1 respectively, and then IC50 (the half maximal inhibitory concentration) was investigated (Table 1).
HeLa cells were treated with 100 nM, 250 nM, 500 nM and 1 μM of ethyl(2-methyl-3{(E)-[(naphtho[2,1-b]furan-2-ylcarbonyl)hydrazono]methyl}-1H-indole-1-yl)acetate or DMSO for 4 days. Then, the cell growth was confirmed by MTT assay. All the obtained numbers were calculated by normalizing the value of Day 0. The data presents the mean value obtained from the assay performed in triplicate.
Particularly, HeLa cells were distributed in a 96-well plate at the density of 2×10^3 cells/well. The cells were treated with DMSO or the compound of the present invention, to which MTT reagent was added at the concentration of 10 μl/well. 2 hours later, OD450 was measured, which became the value of Day 0. 4 days later, MTT reagent was added thereto again. 2 hours later, OD450 was measured. The data presents the mean value obtained from the assay performed in triplicate.

[3] = test system: HT-29; experiment: Anti-proliferative MTT assay, HT-29; conditions: Homo sapiens, 96 h, HT-29, Large intestine, 4 days
Method: (§1) Various cancer cell lines (rectal cancer, prostate cancer, breast cancer, lung cancer, stomach cancer, liver cancer, leukemia, brain cancer, and glioma cell lines) were cultured in microtiter plate (1-3×10^3 cells/well), to which ethyl(2-methyl-3{(E)-[(naphtho[2,1-b]furan-2-ylcarbonyl)hydrazono]methyl}-1H-indole-1-yl)acetate was treated. The culture continued for 4 days. Cytotoxicity was investigated by MTT assay by the same manner as described in Example <1-2>. IC50 was calculated by long-dose response curve. The data presents the mean value obtained from the assay performed in triplicate.

[4] = test system: K562/ADR; experiment: Cytotoxicity MTT assay, multi-drug resistant K562/ADR
Method: (§2) Particularly, K562, MCF7 (Bio-Evaluation Center, Korea Research Institute of Bioscience and Biotechnology, Korea), and the multi-drug resistant cell lines thereof, K562/ADR and MCF7/ADR (Bio-Evaluation Center, Korea Research Institute of Bioscience and Biotechnology, Korea) were cultured in microtiter plate (1-3×10^3 cells/well). Then, the cells were treated with ethyl(2-methyl-3{(E)-[(naphtho[2,1-b]furan-2-ylcarbonyl)hydrazono]methyl}-1H-indole-1-yl)acetate, doxorubicin, or taxol, followed by culture for 4 days. Cytotoxicity was investigated by MTT assay by the same manner as described in Example <1-2>. IC50 was calculated by long-dose response curve. The data presents the mean value obtained from the assay performed in triplicate (Table 3).
(§3) The resistance factor of the multi-drug resistant cell line indicates the ratio of IC50 of the multi-drug resistant cell line to IC50 of the parent cell line showing no resistance, which was presented as a number in the bracket.

[5] = test system: A549; experiment: Anti-proliferative MTT assay, A549; conditions: Homo sapiens, 96 h, A549, Lung, 4 days
Method: as §1

[6] = test system: SNU-601; experiment: Anti-proliferative MTT assay, SNU-601; conditions: 96 h, SNU-601, Stomach, 4 days
Method: as §1

[7] = test system: MCF7/ADR; experiment: Cytotoxicity MTT assay, multi-drug resistant MCF7/ADR
Method: as §2, §3

[8] = test system: MCF7; experiment: Cytotoxicity MTT assay, MCF7; conditions: Homo sapiens, 96 h, 4 days
Method: as §2

[9] = test system: MDA-MB-231; experiment: Anti-proliferative MTT assay, MDA-MB-231; conditions: Homo sapiens, 96 h, MDA-MB-231, Breast, 4 days
Method: as §1

IC50 ([2]; 96 h, HeLa, Cervix, MTT, 4 days): 0.26 µM
IC50 ([2]; HeLa cell line): 0.26 µM
IC50 [3]: 0.701 µM
IC50 [5]: 0.843 µM
IC50 [6]: 0.773 µM
IC50 [9]: 0.543 µM
Structure (SMILES): CCOC(=O)Cn1c(C)c(/C=N/NC(=O)c2cc3c(ccc4ccccc43)o2)c2ccccc21 [STK899704]
effect on microtubules (immunofluorescence over concentrations) ([1]; 1 μM): all the microtubules were destroyed
effect on microtubules and chromosomes (immunostaining) ([1]; 17 hours, Taxol 100 μM, nocodazole 200 ng/ml, compound 5 μM): chromosomes were not fully condensed and microtubules were destroyed
IC50 ([4]; Homo sapiens, 96 h, K562/ADR, MTT, 4 days): 285 µM
resistance factor (number in the bracket) ([4]; ratio of IC50 of K562/ADR to IC50 of parent K562): 0.6
IC50 ([7]; Homo sapiens, NCI/ADR-RES, 96 h, MCF7/ADR, MTT, 4 days): 225 µM
resistance factor (number in the bracket) ([7]; ratio of IC50 of MCF7/ADR to IC50 of parent MCF7): 0.2
IC50 [8]: 1060 µM
